Where two headings read alike, the source gives them in different places.

For assay [1], the target named is T1, LpoPOX, bovine lactoperoxidase, commercial protein, SEQ ID NO: 16 (lacks the propeptide region) (Bos taurus, UniProt P80025).
T1 construct: purchased
The assay can be described thus: Thymol blue assay (halogenation assay), kinetics at 0.1 mM H2O2 (Example 13). The format is biochemical. The note with it: KI 0.03 - 4 mM, 0.1 mM H2O2, 100 µM thymol blue, 1 µg/ml peroxidase.
Method: (§3) The bacterial peroxidases (HydPOX, HydPOXs, OkePOXs) were compared to LpoPOX and LspPOX under these modified conditions.
(§4) The enzymatic reactions were performed at room temperature for 30 min in clear flat-bottomed microplate wells containing 200 µl 0.1 M phosphate buffer pH 7.2, 100 µM thymol blue, 1 µg/ml of recombinant bacterial peroxidase (or commercial LpoPOX as defined in SEQ ID NO: 16), H2O2 and a reducing agent such as I^- (general assay setup).
(§5) Kinetic constants were calculated using a nonlinear regression fitting curve (Figure 9A). […] For this reason, K0.5 values are used indicating the substrate concentration at which half maximal velocity/half-saturation is achieved.

Assay [2] has as its system LspPOX, peroxidase from Lyngbya sp. (strain PCC 8106), mature protein amino acids 117-661 of SEQ ID NO: 12. The assay is described as above. The format is biochemical, Lyngbya sp. PCC 8106. The note with it: KI 0.03 - 4 mM, 0.1 mM H2O2, 100 µM thymol blue, 1 µg/ml peroxidase.
Method: as §3, §4, §5
In assay [3] the test system is HydPOXs, HydPOX peroxidase without proregion (amino acids 117 to 659 of SEQ ID NO: 1), SEQ ID NO: 18. The note with it: KI 0.03 - 4 mM, 0.1 mM H2O2, 100 µM thymol blue, 1 µg/ml peroxidase, 0.1 M phosphate buffer pH 7.2, room temperature (Example 13).
Method: as §3, §4, §5
Assay [4] relates to OkePOXs, functional fragment of OkePOX heme peroxidase from Okeania hirsuta (amino acids 117 to 659 of SEQ ID NO: 11), SEQ ID NO: 25 or 27. The note with it: KI 0.03 - 4 mM, 0.1 mM H2O2, 100 µM thymol blue, 1 µg/ml peroxidase.
Method: as §3, §4, §5
In assay [5] the test system is LspPOX, peroxidase from Lyngbya sp. (strain PCC 8106), mature protein amino acids 117-661 of SEQ ID NO: 12. The note with it: ABTS 0.025 - 10 mM, 10 nM peroxidase, H2O2, 50 mM phosphate buffer pH 6.0, 25 °C (Example 4). The procedure: (§1) The reaction in presence of H2O2 can be easily measured on microplate reader.
The oxidation reaction was read for 30 min at 25 °C. […] The concentration of the added H2O2 solution was 200 µM.

Assay [6] shares this test system. As to conditions: ABTS 0.025 - 10 mM, 10 nM peroxidase, 100 µM H2O2, 50 mM phosphate buffer pH 6.0, 25 °C, optimized fitting (Example 4.1). The procedure: as §1
The oxidation reaction was read for 30 min at 25 °C.

For assay [7], the system named is HydPOXs, HydPOX peroxidase without proregion (amino acids 117 to 659 of SEQ ID NO: 1), SEQ ID NO: 18. The note with it: ABTS 0.025 - 5 mM, 6.45 nM peroxidase, 100 µM H2O2, 50 mM sodium acetate buffer pH 5.0, 25 °C (Example 12). Here is the method:
(§2) The assays were performed in triplicates on a TECAN microtiter plate reader in a total of 200 µL. […] The oxidation reaction was read for 30 min at 25 °C.

The test system of assay [8] is LspPOX, peroxidase from Lyngbya sp. (strain PCC 8106), mature protein amino acids 117-661 of SEQ ID NO: 12. The note with it: ABTS 0.025 - 5 mM, 6.45 nM peroxidase, 100 µM H2O2, 50 mM sodium acetate buffer pH 5.0, 25 °C (Example 12). Here is the method:
as §2

The mark [9] stands for this setting: 0.1 M phosphate buffer pH 7.2, room temperature (Example 13).
Where [10] appears, read: 0.1 M phosphate buffer pH 7.2, room temperature, sigmoidal fitting (Example 13), 30 min, read-out: K0.5.

Turning to `[I-].[K+]` [KI, potassium iodide], the kcat in assay [1] (setting [9]) worked out at 16.5 s⁻¹; in assay [2] (setting [9]), 14.7 s⁻¹; in assay [3], 10.6 s⁻¹; in assay [4] (setting [9]) it was 13.7 s⁻¹. Moreover, the kcat/K0.5 in assay [1] (setting [9]) is 12500 M⁻¹ s⁻¹; in assay [2] (setting [9]), 10600 M⁻¹ s⁻¹; in assay [3], 85100 M⁻¹ s⁻¹; in assay [4] (setting [9]), 118600 M⁻¹ s⁻¹. Further, the Km in assay [1] (setting [10]) was determined as 1320 µM; in assay [2] (setting [10]) it was 1390 µM; in assay [4] (read-out: K0.5, 0.1 M phosphate buffer pH 7.2, room temperature, sigmoidal fitting (Example 13), 30 min), 120 µM.
Turning to `CCn1c(=NN=c2sc3cc(S(=O)(=O)O)ccc3n2CC)sc2cc(S(=O)(=O)O)ccc21` [ABTS, 2,2'-azino-bis (3-ethylbenzothiazoline-6-sulfonic acid)], the Km in assay [5] was found to be 237 µM; in assay [6] it was 180 µM; in assay [8] it was 1090 µM. In addition, the kcat in assay [5] was 7,45 s^-1; in assay [6], 6.3 s⁻¹; in assay [7] it was 95 s^1; in assay [8], 57 s^1.

Values taken from patent EP4309500B1, “PEROXIDASE BASED BIOCONTROL AGENTS” (Acies Bio d.o.o., priority 2022, dated 2024).
